± gives the expanded uncertainty stated by the source.
Settings: Liquid; ebulliometry

Normal boiling temperature	SMILES
204.92 ± 0.2 °C	CNC(C)=O [N-methylacetamide]
203.86 ± 0.2 °C	CN1CCCC1=O [N-methylpyrrolidone]
117.70 ± 0.2 °C	CC(=O)O [acetic acid]
99.81 ± 0.2 °C	O [water]
